Experimental data from patent US20170121295A1, “POLYCYCLIC LPA1 ANTAGONIST AND USES THEREOF” (AMIRA PHARMACEUTICALS, INC., priority 2010, published 2017).

What was measured:
[1] = molecular target: T1, Human LPA3 (Homo sapiens, UniProt Q9UBY5); test: LPA3 Calcium Flux Assay; type: cell-based; details: human LPA3 expressing CHO cells, 10 nM LPA; read-out: Ca Flux IC50 LPA3
T1 construct: The full-length cDNA fragment for human LPA3 was obtained by PCR from the vector
T1 sequence (Q9UBY5 1-353): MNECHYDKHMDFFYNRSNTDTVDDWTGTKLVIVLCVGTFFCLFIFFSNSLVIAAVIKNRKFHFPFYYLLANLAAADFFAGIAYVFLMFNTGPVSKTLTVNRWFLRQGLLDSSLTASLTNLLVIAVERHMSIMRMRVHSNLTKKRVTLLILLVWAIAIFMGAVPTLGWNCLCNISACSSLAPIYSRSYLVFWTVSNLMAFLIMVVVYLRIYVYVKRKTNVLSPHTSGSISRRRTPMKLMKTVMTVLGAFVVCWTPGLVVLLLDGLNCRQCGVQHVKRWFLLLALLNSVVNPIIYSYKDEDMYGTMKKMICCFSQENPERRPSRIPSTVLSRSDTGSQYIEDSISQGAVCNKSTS
Description: A vector containing the human LPA3 receptor cDNA was obtained from the Missouri S&T cDNA Resource Center (www.cdna.org). The full-length cDNA fragment for human LPA3 was obtained by PCR from the vector. The nucleotide sequence of the cloned human LPA3 was determined by sequencing and confirmed to be identical to the published human LPA3 sequence (NCBI accession number NM_012152). The cDNA was cloned into the pCDNA5/FRT expression plasmid and transfected in CHO cells using lipofectamine 2000 (Invitrogen Corp., USA). Clones stably expressing human LPA3 were selected using hygromycin and identified as cells that show Ca-influx in response to LPA.
(§1) Human LPA1 or LPA3 expressing CHO cells are seeded at 20,000-45,000 cells per well in a 96-well poly-D-lysine coated plate one or two days before the assay. Prior to the assay, the cells are washed once with PBS and then cultured in serum-free media overnight. On the day of the assay, a calcium indicator dye (Calcium 4, Molecular Devices) in assay buffer (HBSS with Ca^2+ and Mg^2+ and containing 20 mM Hepes and 0.3% fatty-acid free human serum albumin) is added to each well and incubation continued for 1 hour at 37° C. 10 μl of test compound in 2.5% DMSO are added to the cells and incubation continued at room temperature for 30 minutes. Cells are the stimulated by the addition of 10 nM LPA and intracellular Ca^2+ measured using the Flexstation 3 (Molecular Devices). IC50s are determined using Graphpad prism analysis of drug titration curves.

[2] = molecular target: T2, Human LPA1 (Homo sapiens, UniProt Q92633); test: LPA1 Calcium Flux Assay; type: cell-based; details: human LPA1 expressing CHO cells, 10 nM LPA; read-out: Ca Flux IC50 LPA1
T2 construct: the full-length cDNA for human LPA1 was obtained by PCR of the reverse transcription reaction; expressed in transfected cells
Description: A 1.1 kb cDNA encoding the human LPA1 receptor was cloned from human lung. Human lung RNA (Clontech Laboratories, Inc. USA) was reverse transcribed using the RETROscript kit (Ambion, Inc.) and the full-length cDNA for human LPA1 was obtained by PCR of the reverse transcription reaction. The nucleotide sequence of the cloned human LPA1 was determined by sequencing and confirmed to be identical to the published human LPA1 sequence (An et al. Biochem. Biophys. Res. Commun. 231:619 (1997). The cDNA was cloned into the pCDNA5/FRT expression plasmid and transfected in CHO cells using lipofectamine 2000 (Invitrogen Corp., USA). Clones stably expressing human LPA1 were selected using hygromycin and identified as cells that show Ca-influx in response to LPA.
as §1

[3] = system: renal fibrosis; details: compared with LPA1 (−/−) mice; cited from earlier work
[4] = system: highly peritoneal metastatic pancreatic cancer cell line; details: LPA-induced and ascites-induced; cited from earlier work
[5] = system: pancreatic cancer cell lines; details: in response to LPA and peritoneal fluid (ascites) from pancreatic cancer patients; cited from earlier work

T2 sequence (Q92633 whole entry): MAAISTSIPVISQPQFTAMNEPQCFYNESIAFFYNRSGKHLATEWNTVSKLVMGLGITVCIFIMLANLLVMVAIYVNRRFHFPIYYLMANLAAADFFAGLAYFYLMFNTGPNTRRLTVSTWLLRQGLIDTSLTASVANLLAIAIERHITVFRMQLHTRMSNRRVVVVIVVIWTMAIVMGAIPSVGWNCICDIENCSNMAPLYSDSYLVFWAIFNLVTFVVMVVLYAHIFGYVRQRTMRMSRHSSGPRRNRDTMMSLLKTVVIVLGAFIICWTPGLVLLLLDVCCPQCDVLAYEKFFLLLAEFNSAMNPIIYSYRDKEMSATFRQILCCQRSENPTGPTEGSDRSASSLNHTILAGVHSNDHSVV

Row | IC50 [1] | IC50 [2] | SMILES | development of renal fibrosis in UUO mice [3] | invasion activity [4] | in vitro migration [5]
1 | > 1000 nM | < 200 nM | Cc1noc(-c2ccc(-c3ccc(C4(C(=O)O)CC4)cc3)cc2)c1NC(=O)O[C@@H](C)c1ccccc1 [S-enantiomer of Compound 1] | – | – | –
2 | – | – | Cc1noc(-c2ccc(CSCCC(=O)O)cc2)c1NC(=O)OC(C)c1ccccc1Cl (stereo not shown) [Ki16425] | closely resembled the LPA1 (−/−) mice | blocked | effectively blocked
3 | > 1000 nM | < 200 nM | Cc1noc(-c2ccc(-c3ccc(C4(C(=O)O)CC4)cc3)cc2)c1NC(=O)OC(C)c1ccccc1 (racemic) [Racemic Compound 1] | – | – | –
